Assay results from patent US20250090437A1, “COSMETIC COMPOUNDING AGENT, COSMETIC AND PRODUCTION METHOD THEREOF” (MIYOSHI OIL & FAT CO., LTD., priority 2019, published 2025).
Values belong to the compound of their own block, whether it stands above or below them.

Legend:
[1] = Water retention property and adherability with respect to healthy hair; parameters: species or system human; settings: for Post-test moisture rate / Compound adhesion rate: healthy hair immersed 60 min in 80 wt % aqueous solution; for Post-test moisture rate: after 24 hours at 40° C., pre-test 7.6%; for Post-test moisture rate / Rate of reduction in moisture: 35 to 40% RH; for Rate of reduction in moisture: healthy hair, 80 wt % aqueous solution, 24 hours at 40° C.; for Adherability to the healthy hair: compared to the compounds of comparative examples B1 to B8
Method: In the following evaluations, a human black hair produced by Beaulax Co., Ltd was used as a healthy hair. A damaged hair was prepared by repeatedly having the healthy hair permed and bleached three times.
An 80 wt % aqueous solution of each of the compounds B1 to B26 (content in terms of anhydride in the cases of the compounds B1 to B23) was prepared, followed by using a Karl Fischer moisture meter (KF-200 by Mitsubishi Chemical Analytech Co., Ltd.) to confirm that a moisture rate was 20.0 wt %. As a healthy hair, there was used a chemically untreated healthy hair (human black hair by Beaulax Co., Ltd). The moisture rate (pre-test moisture rate A) of the hair was measured by an infrared moisture meter (by Kett Electric Laboratory).
After immersion, the hair was taken out, and KimWipes were then used to wipe off the compound until a change in weight was no longer observed, followed by measuring the weight of the hair (post-test hair weight B). The hair from which the compound had been wiped off was then placed into a thermo-hygrostat set to 40° C. and 35 to 40% RH. A moisture rate after 24 hours (post-test moisture rate B) was then measured, followed by calculating a rate of reduction in moisture with the following formula. Likewise, instead of the 80 wt % aqueous solution, evaluation was also performed in a similar manner using only an ion-exchange water (comparative example B4).
Further, an adhesion rate of the compound adhering to the hair was calculated with the following formula. […]

[2] = Water retention property test 1; assay type: physicochemical; settings: 80 wt % aqueous solution
Method: A moisture rate after 24 hours was again measured (post-test moisture rate: B), followed by using the formula below to calculate a rate of reduction in moisture so as to evaluate the water retention property. • Pre-test moisture rate: A (%) • Post-test moisture rate: B (%)

[3] = Water confinement property test (barrier property); assay type: physicochemical; settings: 24 hours
Method: Next, 20.0 g of an ion-exchange water was put into a 40 mL pierce vial bottle (by AS ONE Corporation.), followed by removing an inner lid (rubber plug) of the pierce vial bottle, placing on the pierce vial bottle the filter paper to which each sample had been applied, and then plugging the bottle with an outer lid.
Further, Wm1, Wm2, Sm1 and Sm2 in the formula below respectively represent the following numerical values.
Wm1: Weight of ion-exchange water in vial before storage (using filter paper to which only ion-exchange water had been applied)
Wm2: Weight of ion-exchange water in vial after 24 hours (using filter paper to which only ion-exchange water had been applied)
Sm1: Weight of ion-exchange water in vial before storage (using filter paper to which sample had been applied)
Sm2: Weight of ion-exchange water in vial after 24 hours (using filter paper to which sample had been applied)

[4] = Sensory evaluation on healthy hair after using shampoo agent containing organic ammonium salt; parameters: species or system human; settings: shampoo agent containing 3.0% by mass of the compound; treated 10 times
Method: Next, the mixture was cooled to a temperature of 30° C. or lower, and a purified water of an evaporated amount was then added thereto so that the whole hair treatment composition would be 100% by mass, followed by uniformly mixing them so as to obtain a hair treatment composition(s). The pH level of the hair treatment composition was adjusted to pH 6.0 by adding a citric acid or sodium hydroxide.
About 5 g of the healthy hair was taken and dipped into 350 ml of a seven-time dilute aqueous solution of each of the abovementioned hair treatment compositions (shampoo agents) at 35 to 40° C. so as to be washed. The healthy hair was then subjected to a rinsing treatment five times using 500 ml of a warm water of 35 to 40° C., followed by drying the same at 80° C., and then performing air drying at 25° C. Such series of treatment involving hair washing, rinsing and drying was repeated 10 times to then evaluate a cohesiveness of the hair, a moist feeling of the hair, a gloss of the hair, a surface smoothness of the hair and a non-stickiness on the surface of the hair, after performing air drying.

[5] = Sensory evaluation on healthy hair after using organic ammonium salt; parameters: species or system human; settings: compared to the compounds of the comparative examples
Method: (§1) Here, an 80 wt % aqueous solution(s) of each of the compounds B11, B12, B23, B26 and B27 (content in terms of anhydride in the cases of the compounds B11, B12 and B23) were prepared and used as samples. Next, one minute was spent in evenly applying 10.0 g of each sample to a bundle of the healthy hairs weighing about 10 g, using a brush; the bundle of the healthy hairs was then left for 5 min. After leaving it for 5 min, the bundle of the healthy hairs was rinsed with a hot water of 40° C. for 30 sec, and evaluated was a finger-combing capability at the time of performing washing. The hair bundle that had been rinsed was then dried with a towel and further subjected to air drying for a day, followed by evaluating items such as flexibility, finger-combing capability, texture, elasticity/resilience (feeling by bare hands), volume increase (visual evaluation), cohesiveness, moist feeling, surface smoothness, non-stickiness (feeling by bare hands) and gloss (visual evaluation), from the perspective of superiority or inferiority to a test hair bundle(s) uncoated with the sample.

[6] = Sensory evaluation on damaged hair after using organic ammonium salt; parameters: species or system human; settings: compared to the compounds of the comparative examples
Method: as §1, with “damaged” for “healthy”, “as” for “as flexibility, finger-combing capability, texture,”, “hands),” for “hands), volume increase (visual evaluation),”, “cohesiveness,” for “cohesiveness, moist feeling,”, “smoothness” for “smoothness, non-stickiness (feeling by bare hands)”, “non-waviness,” for “gloss (visual evaluation),”

[7] = Permeability to skin (horny layer tape stripping method); assay type: in vivo; settings: extraction liquid, an hour after application to the arm, HPLC
Method: Skin permeability was evaluated by a horny layer tape stripping method. […] A sample was applied to the arm and then left thereon for an hour before performing tape stripping on the horn by eight layers. An adhered substance on this tape was then extracted with an ion-exchange water over the course of 10 min, followed by filtrating an extraction liquid thus obtained with a 0.2 μm filter, and then quantifying, via HPLC, the amount of each of the compounds C20, C64 and C97 in each extraction liquid filtrated.

[8] = Stability of ascorbic acid-based compound (coloration); assay type: physicochemical; parameters: key to Appearance (Visual evaluation) Immediately after preparatiom / Appearance (Visual evaluation) After 7 days 50° C. / Appearance (Visual evaluation) After 7 days Room temperature: ⊚: Colorless and transparent; ∘: Light yellow; Δ: Yellow; x: Brown to black; settings: 33 wt % aqueous solution
Method: With regard to a 33 wt/% aqueous solution of each of the compounds C46, C49 and C98 to C100 and water, a stability in an aqueous solution condition was visually evaluated. An evaluation method was such that there was prepared a 33 wt % aqueous solution of each of the compounds C46, C49 and C98 to C100, the aqueous solution was then left to stand still at room temperature or in a thermostatic bath of 50° C. for seven days; coloration before and after the still standing was visually confirmed. The evaluation criteria were as follows. • ⊚: Colorless and transparent • ∘: Light yellow • Δ: Yellow • x: Brown to black

[9] = unsealed, 24 hours at 40° C. and 25% RH

SMILES: CCCC[N+](CCCC)(CCCC)CCCC.[Br-] [Compound A54, tetrabutylammonium bromide, reference compound]
Post-test moisture rate [1]: 4.0% | Compound adhesion rate ([1]; listed as B24): 1.0% | Rate of reduction in moisture [1]: 47% | Pre-test moisture rate ([2]; before the test (Karl Fischer)): 20.0% | Post-test moisture rate [2, 9]: 15.3% | Rate of reduction in moisture [2, 9]: 23.6% | Water evaporation inhibition rate ([3]; 80 wt % aqueous solution, 0.01 mL/cm^2 on filter paper, 40° C. and 25% RH): 29.5%

SMILES: CC(N)(CO)CO.O=C1O[C@H]([C@@H](O)CO)C(O)=C1O [Compound B7]
Compound adhesion rate [1]: 2.4% | Post-test moisture rate [1]: 6.0% | Rate of reduction in moisture [1]: 21% | Sensory evaluation of healthy hair after shampoo agent (cohesiveness, moist feeling, gloss, smoothness, non-stickiness) [4]: favorable

SMILES: CCCCCCCC/C=C\CCCCCCCC(=O)OCC(N)(CO)CO [Compound B30, 2-amino-2-hydroxymethyl-1,3-propanediol oleate]
Adherability to the healthy hair [1]: higher adherability | Sensory evaluation on healthy hair (flexibility, finger-combing, texture, elasticity/resilience, volume, cohesiveness, moist feeling, smoothness, non-stickiness, gloss) [5]: superior | Sensory evaluation on damaged hair (elasticity/resilience, cohesiveness, surface smoothness, suppression of waviness) [6]: superior

SMILES: CCCCC/C=C\C/C=C\CCCCCCCC(=O)OCC(N)(CO)CO [Compound B31, 2-amino-2-hydroxymethyl-1,3-propanediol linoleate]
Adherability to the healthy hair [1]: higher adherability | Sensory evaluation on healthy hair (flexibility, finger-combing, texture, elasticity/resilience, volume, cohesiveness, moist feeling, smoothness, non-stickiness, gloss) [5]: superior | Sensory evaluation on damaged hair (elasticity/resilience, cohesiveness, surface smoothness, suppression of waviness) [6]: superior | Water evaporation inhibition rate ([3]; sample on filter paper over vial of water, 40° C., 25% RH): 48.1%

SMILES: CC(C)CCCCCCCCCCCCCCC(=O)OCC(N)(CO)CO [Compound B32, 2-amino-2-hydroxymethyl-1,3-propanediol isostearate]
Adherability to the healthy hair [1]: higher adherability | Sensory evaluation on healthy hair (flexibility, finger-combing, texture, elasticity/resilience, volume, cohesiveness, moist feeling, smoothness, non-stickiness, gloss) [5]: superior | Sensory evaluation on damaged hair (elasticity/resilience, cohesiveness, surface smoothness, suppression of waviness) [6]: superior

SMILES: CCCCCCCC/C=C\CCCCCCCC(=O)OCC(C)(N)CO (centres unmarked) [Compound B33, 2-amino-2-methyl-1,3-propanediol oleate]
Adherability to the healthy hair [1]: higher adherability | Sensory evaluation on healthy hair (flexibility, finger-combing, texture, elasticity/resilience, volume, cohesiveness, moist feeling, smoothness, non-stickiness, gloss) [5]: superior | Sensory evaluation on damaged hair (elasticity/resilience, cohesiveness, surface smoothness, suppression of waviness) [6]: superior

SMILES: CCCCC/C=C\C/C=C\CCCCCCCC(=O)OCC(C)(N)CO (centres unmarked) [Compound B34, 2-amino-2-methyl-1,3-propanediol linoleate]
Adherability to the healthy hair [1]: higher adherability | Sensory evaluation on healthy hair (flexibility, finger-combing, texture, elasticity/resilience, volume, cohesiveness, moist feeling, smoothness, non-stickiness, gloss) [5]: superior | Sensory evaluation on damaged hair (elasticity/resilience, cohesiveness, surface smoothness, suppression of waviness) [6]: superior

SMILES: CC(C)CCCCCCCCCCCCCCC(=O)OCC(C)(N)CO (centres unmarked) [Compound B35, 2-amino-2-methyl-1,3-propanediol isostearate]
Adherability to the healthy hair [1]: higher adherability | Sensory evaluation on healthy hair (flexibility, finger-combing, texture, elasticity/resilience, volume, cohesiveness, moist feeling, smoothness, non-stickiness, gloss) [5]: superior | Sensory evaluation on damaged hair (elasticity/resilience, cohesiveness, surface smoothness, suppression of waviness) [6]: superior

SMILES: CC(O)C(=O)[O-].[K+] (centres unmarked) [Compound C97, potassium lactate]
Compound concentration ([7]; Tape stripping layer 1): 0.020 ml/L | Compound concentration ([7]; Tape stripping layer 2): 0.017 ml/L | Compound concentration ([7]; Tape stripping layer 3): 0.016 ml/L | Compound concentration ([7]; Tape stripping layer 4): 0.009 ml/L | Compound concentration ([7]; Tape stripping layer 5): 0.008 ml/L | Compound concentration ([7]; Tape stripping layer 6): 0.006 ml/L | Compound concentration ([7]; Tape stripping layer 7): 0.006 ml/L | Compound concentration ([7]; Tape stripping layer 8): 0.006 ml/L

SMILES: O=C1O[C@H]([C@@H](O)CO)C(O)=C1O [Compound C98, ascorbic acid]
Appearance (Visual evaluation) After 7 days 50° C. [8]: x | Appearance (Visual evaluation) After 7 days Room temperature [8]: x | Appearance (Visual evaluation) Immediately after preparatiom [8]: ⊚

Appearance (Visual evaluation) After 7 days 50° C. [8]: Δ~x | Appearance (Visual evaluation) After 7 days Room temperature [8]: ○ | Appearance (Visual evaluation) Immediately after preparatiom [8]: ⊚
SMILES: O=C1O[C@H]([C@@H](O)CO)C(O)=C1O[C@H]1O[C@H](CO)[C@@H](O)[C@H](O)[C@H]1O [Compound C99, ascorbic acid glucoside]

Appearance (Visual evaluation) After 7 days 50° C. [8]: Δ~x | Appearance (Visual evaluation) After 7 days Room temperature [8]: ○~Δ | Appearance (Visual evaluation) Immediately after preparatiom [8]: ⊚
SMILES: O=C1O[C@H]([C@@H](O)CO)C([O-])=C1OP(=O)([O-])[O-].[Na+].[Na+].[Na+] [Compound C100, sodium ascorbyl phosphate]
